In patent US20120220564A1, “SELECTIVE CALCIUM CHANNEL MODULATORS” (Zalicus Pharmaceuticals Ltd., priority 2009, published 2012):

How the values were obtained:
[1] = tested on: Rat SNL tactile allodynia; test: L5/L6 spinal nerve ligation (SNL) Chung pain model, tactile allodynia (von Frey); format: in vivo; conditions: for % Antiallodynia (Mean ± SD): 30 mg/kg PO, n = 7-8; for anti-allodynia effects: second repetition of the study, n=9
Text: The Spinal Nerve Ligation is an animal model representing peripheral nerve injury generating a neuropathic pain syndrome. In this model experimental animals develop the clinical symptoms of tactile allodynia and hyperalgesia. L5/L6 Spinal nerve ligation (SNL) injury was induced using the procedure of Kim and Chung (Kim et al., Pain 50:355-363 (1992)) in male Sprague-Dawley rats (Harlan; Indianapolis, Ind.) weighing 200 to 250 grams.
Anaesthesia was induced with 2% isofluorane in O2 at 2 L/min and maintained with 0.5% isofluorane in O2. Rats were then shaved and aseptically prepared for surgeries. A 2 cm paraspinal incision was made at the level of L4-S2. L4/L5 was exposed by removing the transverse process above the nerves with a small rongeur. The L5 spinal nerve is the larger of the two visible nerves below the transverse process and lies closest to the spine. The L6 spinal nerve is located beneath the corner of the slope bone. A home-made glass Chung rod was used to hook L5 or L6 and a pre-made slip knot of 4.0 silk suture was placed on the tip of the rod just above the nerve and pulled underneath to allow for the tight ligation. The L5 and L6 spinal nerves were tightly ligated distal to the dorsal root ganglion. The incision was closed, and the animals were allowed to recover for 5 days.
Sham control rats underwent the same operation and handling as the experimental animals, but without SNL.
Prior to initiating drug delivery, baseline behavioural testing data is obtained. At selected times after infusion of the Test or Control Article behavioural data can then be collected again.
The assessment of tactile allodynia consisted of measuring the withdrawal threshold of the paw ipsilateral to the site of nerve injury in response to probing with a series of calibrated von Frey filaments (innocuous stimuli). Animals were acclimated to the suspended wire-mesh cages for 30 min before testing. Each von Frey filament was applied perpendicularly to the plantar surface of the ligated paw of rats for 5 sec. A positive response was indicated by a sharp withdrawal of the paw. For rats, the first testing filament is 4.31. Measurements were taken before and after administration of test articles. […] The protocol was repeated until three changes in behaviour were determined (“up and down” method) (Chaplan et al., J. Neurosci. Methods 53:55-63 (1994)). The 50% paw withdrawal threshold was determined as (10^[Xf+kδ])/10,000, where Xf=the value of the last von Frey filament employed, k=Dixon value for the positive/negative pattern, and δ=the logarithmic difference between stimuli. The cut-off values for rats were no less than 0.2 g and no higher than 15 g (5.18 filament); for mice no less than 0.03 g and no higher than 2.34 g (4.56 filament). A significant drop of the paw withdrawal threshold compared to the pre-treatment baseline is considered tactile allodynia.

[2] = tested on: Lamina I/II spinal cord neurons; test: Lamina assay, current-clamp recordings in spinal cord slices; format: cell-based, rat; conditions: Lamina I and II neurons
Text: Male Wistar rats (P6 to P9 for voltage-clamp and P15 to P18 for current-clamp recordings) were anaesthetized through intraperitoneal injection of Inactin (Sigma). The spinal cord was then rapidly dissected out and placed in an ice-cold solution protective sucrose solution containing (in mM): 50 sucrose, 92 NaCl, 15 D-Glucose, 26 NaHCO3, 5 KCl, 1.25 NaH2PO4, 0.5 CaCl2, 7 MgSO4, 1 kynurenic acid, and bubbled with 5% CO2/95% O2. The meninges, dura, and dorsal and ventral roots were then removed from the lumbar region of the spinal cord under a dissecting microscope. The “cleaned” lumbar region of the spinal cord was glued to the vibratome stage and immediately immersed in ice cold, bubbled, sucrose solution. For current-clamp recordings, 300 to 350 μm parasagittal slices were cut to preserve the dendritic arbour of lamina I neurons, while 350 to 400 μm transverse slices were prepared for voltage-clamped […] channel recordings. Slices were allowed to recover for 1 hour at 35° C. in Ringer solution containing (in mM): 125 NaCl, 20 D-Glucose, 26 NaHCO3, 3 KCl, 1.25 NaH2PO4, 2 CaCl2, 1 MgCl2, 1 kynurenic acid, 0.1 picrotoxin, bubbled with 5% CO2/95% O2. The slice recovery chamber was then returned to room temperature (20 to 22° C.) and all recordings were performed at this temperature.
Neurons were visualized using IR-DIC optics (Zeiss Axioskop 2 FS plus, Gottingen, Germany), and neurons from lamina I and the outer layer of lamina II were selected based on their location relative to the substantia gelatinosa layer. Neurons were patch-clamped using borosilicate glass patch pipettes with resistances of […] Current-clamp recordings of lamina I/II neurons in the intact slice, the external recording solution was the above Ringer solution, while the internal patch pipette solution contained (in mM): 140 KGluconate, 4 NaCl, 10 HEPES, 1 EGTA, 0.5 MgCl2, 4 MgATP, 0.5 Na2GTP, adjusted to pH 7.2 with 5 M KOH and to 290 mOsm with D-Mannitol (if necessary). […]

| Molecule | % Antiallodynia (Mean ± SD) ([1]; 1 h) | % Antiallodynia (Mean ± SD) ([1]; 4 h) | anti-allodynia effects ([1]; 1 hr) | anti-allodynia effects ([1]; 2 hr) | anti-allodynia effects ([1]; 4 hr) | % Spike Change Mean [2] | Rat SNL tactile allodynia (% antiallodynia) ([1]; 1 hr) | Rat SNL tactile allodynia (% antiallodynia) ([1]; 2 hr) | Rat SNL tactile allodynia (% antiallodynia) ([1]; 4 hr) |
| --- | --- | --- | --- | --- | --- | --- | --- | --- | --- |
| N[C@@H]1CCCC[C@H]1C(=O)N1CCC(CC(=O)Nc2cc(C(F)(F)F)cc(C(F)(F)F)c2)CC1 (racemic) [Compound 3, trans-2-(1-(2-aminocyclohexanecarbonyl)piperidin-4-yl)-N-(3,5-bis(trifluoromethyl)phenyl)acetamide] | 36 ± 19 % | 4 ± 8% | 68±12% | 76±6% | 42±14% | −51.1% | – | – | – |
| N-(3,5- bis(trifluoromethyl) phenyl)-2-(1- (piperidine-3- carbonyl)piperidin-4- yl)acetamide [Compound 2] | – | – | – | – | – | −57.2% | 38% | 44% | 27% |
